For the test, the system named is P388 leukemia ip, CD2F1 mice, survival T/C. As to the kind of experiment: NCI In Vivo Anticancer Drug Screen. Data for tumor model P388 Leukemia (intraperitoneal) in CD2F1 (CDF1) mice. The settings on record: endpoint: median survival time, higher = longer survival. In outline: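 Mice carrying the transplanted tumor received test compound or vehicle. Survival was recorded in each group, and the value is the treated-group measurement divided by that of the vehicle-treated control group.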

Setting [1] is: dose: 50.0 mg/kg/injection, schedule: Q01DX005 (ip), vehicle: saline.
Where [2] appears, read: dose: 50.0 mg/kg/injection, schedule: Q01DX005 (ip), vehicle: saline with Tween-80.
The mark [3] stands for this setting: dose: 100.0 mg/kg/injection, schedule: Q01DX005 (ip), vehicle: saline with Tween-80.
[4] abbreviates: dose: 50.0 mg/kg/injection, schedule: Q01DX009 (ip), vehicle: saline with Tween-80.
Setting [5] is: dose: 50.0 mg/kg/injection, schedule: Q01DX009 (ip), vehicle: saline.
[6] abbreviates: dose: 100.0 mg/kg/injection, schedule: Q01DX009 (ip), vehicle: saline.
Setting [7] is: dose: 200.0 mg/kg/injection, schedule: Q01DX009 (ip), vehicle: saline.
The mark [8] stands for this setting: dose: 50.0 mg/kg/injection, schedule: Q01DX009 (ip), vehicle: Klucel (hydroxypropylcellulose) (HPC).
Where [9] appears, read: dose: 100.0 mg/kg/injection, schedule: Q01DX009 (ip), vehicle: Klucel (hydroxypropylcellulose) (HPC).
Where [10] appears, read: dose: 200.0 mg/kg/injection, schedule: Q01DX009 (ip), vehicle: Klucel (hydroxypropylcellulose) (HPC).
[11] abbreviates: dose: 50.0 mg/kg/injection, schedule: Q04DX003 (ip), vehicle: saline.
The mark [12] stands for this setting: dose: 100.0 mg/kg/injection, schedule: Q01DX009 (ip), vehicle: saline with Tween-80.
Where [13] appears, read: dose: 200.0 mg/kg/injection, schedule: Q01DX009 (ip), vehicle: saline with Tween-80.

Experimental findings from PubChem BioAssay AID330 (DTP/NCI, 2004) are described below.

SMILES strings stand for the structures. Values joined by “and” are separate entries in the source; they are usually repeats but may differ in a detail not shown here. Equal entries are not always repeated. Toxic doses and inconclusive results are not listed. Square brackets hold non-standard residues; d marks the D form. Peptide text beside a SMILES is read from it. Abu = CC[CH](N)C(=O)O

Consider `C[N+]1(C[Si](C)(C)c2ccccc2)CCCCC1`, for which the T/C reads like this: (dose: 12.5 mg/kg/injection, schedule: Q01DX005 (ip), vehicle: saline) 104 % of control; (dose: 25.0 mg/kg/injection, schedule: Q01DX005 (ip), vehicle: saline) 100 % of control; under setting [1], 101 % of control and 105 % of control.

For the compound `NC(CCC(=O)NC(CS)C(=O)NCC(=O)O)C(=O)O.[CH2-]CCC.[CH2-]CCC.[CH2-]CCC.[CH2-]CCC.[Ti+4]` (stereo unspecified), the T/C runs as follows: under setting [2], 103 % of control; under setting [3], 89 % of control.

In the case of `CC(CCc1ccc(O)cc1)NCCc1ccc(O)c(O)c1` (stereo unspecified), the T/C runs as follows: (dose: 50.0 mg/kg/injection, schedule: Q01DX009 (ip), vehicle: suspension in saline) 100 % of control; (dose: 100.0 mg/kg/injection, schedule: Q01DX009 (ip), vehicle: suspension in saline) 104 % of control; (dose: 200.0 mg/kg/injection, schedule: Q01DX009 (ip), vehicle: suspension in saline) 115 % of control.

As for `O=C(O)c1cc(-c2ccccc2)[nH]c1-c1ccccc1`, the T/C is 103 % of control (dose: 12.5 mg/kg/injection, schedule: Q01DX009 (ip), vehicle: saline with Tween-80); 106 % of control (dose: 25.0 mg/kg/injection, schedule: Q01DX009 (ip), vehicle: saline with Tween-80); 90 % of control under setting [4].

Turning to `CSc1cccnc1SC`, the T/C reads like this: under setting [5], 98 % of control; under setting [6], 98 % of control; under setting [7], 92 % of control.

As for `CS(=O)(=O)OCC(COS(C)(=O)=O)(COS(C)(=O)=O)COS(C)(=O)=O`, the T/C was 93 % of control under setting [8], 99 % of control under setting [9] and 94 % of control under setting [10].

`O=C1SCCC1CO` (stereo unspecified): the T/C is, setting by setting: (dose: 25.0 mg/kg/injection, schedule: Q04DX003 (ip), vehicle: saline) 100 % of control; under setting [11], 106 % of control.

Consider `O=C(O)CCN1C(=O)c2ccccc2C1=O`, for which the T/C by setting is: (dose: 100.0 mg/kg/injection, schedule: Q04DX003 (ip), vehicle: saline with Tween-80) 100 % of control; (dose: 200.0 mg/kg/injection, schedule: Q04DX003 (ip), vehicle: saline with Tween-80) 100 % of control; (dose: 400.0 mg/kg/injection, schedule: Q04DX003 (ip), vehicle: saline with Tween-80) 95 % of control.

Regarding `CN(CCCNc1c2ccccc2nc2ccccc12)CCCNc1c2ccccc2nc2ccccc12`, the T/C (dose: 1.25 mg/kg/injection, schedule: Q01DX009 (ip), vehicle: other) was 115 % of control.

Regarding `CCOC(=O)CSc1nnc(-c2ccc3c(c2)OCO3)o1`, the T/C is 102 % of control (dose: 62.5 mg/kg/injection, schedule: Q01DX001 (ip), vehicle: Klucel (hydroxypropylcellulose) (HPC)); 105 % of control (dose: 125.0 mg/kg/injection, schedule: Q01DX001 (ip), vehicle: Klucel (hydroxypropylcellulose) (HPC)); 108 % of control (dose: 250.0 mg/kg/injection, schedule: Q01DX001 (ip), vehicle: Klucel (hydroxypropylcellulose) (HPC)).

In the case of `Cn1c(N)c(-n2[nH]c(=O)n(-c3ccccc3)c2=O)c(=O)n(C)c1=O`, the T/C by setting is: under setting [8], 106 % of control; under setting [9], 95 % of control; under setting [10], 98 % of control.

Regarding `CCOC(=O)C1=C(C(=O)c2cccc3ccccc23)C(c2ccc([N+](=O)[O-])cc2)C(C(=O)c2cccc3ccccc23)=C(C(=O)OCC)N1`, the T/C (dose: 60.0 mg/kg/injection, schedule: Q01DX005 (ip), vehicle: Klucel (hydroxypropylcellulose) (HPC)) was 87 % of control and 88 % of control; the T/C (dose: 120.0 mg/kg/injection, schedule: Q01DX005 (ip), vehicle: Klucel (hydroxypropylcellulose) (HPC)) was 87 % of control; the T/C (dose: 240.0 mg/kg/injection, schedule: Q01DX005 (ip), vehicle: Klucel (hydroxypropylcellulose) (HPC)) is 86 % of control and 95 % of control.

On to `CC1(C)N=C(N)N=C(N)N1c1ccc(OCC(=O)Nc2ccc(S(=O)(=O)F)cc2)c(Cl)c1`, for which the T/C under setting [11] was 159 % of control; the T/C (dose: 100.0 mg/kg/injection, schedule: Q04DX003 (ip), vehicle: saline) is 163 % of control and 175 % of control; the T/C (dose: 200.0 mg/kg/injection, schedule: Q04DX003 (ip), vehicle: saline) was 177 % of control and 190 % of control; the T/C (dose: 400.0 mg/kg/injection, schedule: Q04DX003 (ip), vehicle: saline) is 115 % of control.

Regarding `CN(Cc1c(O)ccc2ccccc12)Cc1c(O)ccc2ccccc12`, the T/C runs as follows: under setting [2], 97 % of control; under setting [3], 109 % of control; (dose: 200.0 mg/kg/injection, schedule: Q01DX005 (ip), vehicle: saline with Tween-80) 100 % of control.

Turning to `CC#CC#C/C=C1/C=CC(=O)O1`, the T/C (dose: 12.5 mg/kg/injection, schedule: Q01DX009 (ip), vehicle: Klucel (hydroxypropylcellulose) (HPC)) was 105 % of control; the T/C (dose: 25.0 mg/kg/injection, schedule: Q01DX009 (ip), vehicle: Klucel (hydroxypropylcellulose) (HPC)) is 104 % of control; the T/C under setting [8] is 107 % of control; the T/C under setting [9] was 107 % of control.

Take `COc1cc2c3c(c1OC)C=C[C@@H]1CCCN(CC2)[C@H]31`: the T/C was 100 % of control (dose: 7.5 mg/kg/injection, schedule: Q01DX005 (ip), vehicle: Klucel (hydroxypropylcellulose) (HPC)); 98 % of control (dose: 15.0 mg/kg/injection, schedule: Q01DX005 (ip), vehicle: Klucel (hydroxypropylcellulose) (HPC)); 101 % of control (dose: 30.0 mg/kg/injection, schedule: Q01DX005 (ip), vehicle: Klucel (hydroxypropylcellulose) (HPC)).

For the compound `CCC(N)C(=O)NC(C(N)=O)C(C)C` (stereo unspecified) (H-[Abu]-Val-NH2; configuration not given here), the T/C was 102 % of control under setting [1]; 101 % of control (dose: 100.0 mg/kg/injection, schedule: Q01DX005 (ip), vehicle: saline); 104 % of control (dose: 200.0 mg/kg/injection, schedule: Q01DX005 (ip), vehicle: saline).

In the case of `CC(=O)Nc1cc(C(=O)O)cc(C(=O)O)c1`, the T/C by setting is: under setting [4], 109 % of control; under setting [12], 105 % of control; under setting [13], 92 % of control.

Take `COc1ccc(C2=NCCc3cc(OC)c(OC)cc32)cc1OC`: the T/C (dose: 6.25 mg/kg/injection, schedule: Q01DX009 (ip), vehicle: water) was 111 % of control; the T/C (dose: 12.5 mg/kg/injection, schedule: Q01DX009 (ip), vehicle: water) was 108 % of control; the T/C (dose: 25.0 mg/kg/injection, schedule: Q01DX009 (ip), vehicle: water) was 118 % of control; the T/C (dose: 50.0 mg/kg/injection, schedule: Q01DX009 (ip), vehicle: water) was 105 % of control; the T/C (dose: 100.0 mg/kg/injection, schedule: Q01DX009 (ip), vehicle: water) is 111 % of control.

Regarding `CCCCCCCCCCCCCCCCOS(=O)(=O)O` (tested in a mixture with another compound), the T/C was 99 % of control (dose: 20.0 mg/kg/injection, schedule: Q01DX009 (ip), vehicle: saline with Tween-80) and 92 % of control (dose: 40.0 mg/kg/injection, schedule: Q01DX009 (ip), vehicle: saline with Tween-80).

Consider `c1ccc(CSC2=NCCCC2)cc1`, for which the T/C was 98 % of control (dose: 100.0 mg/kg/injection, schedule: Q04DX002 (ip), vehicle: saline with Tween-80); 105 % of control (dose: 200.0 mg/kg/injection, schedule: Q04DX002 (ip), vehicle: saline with Tween-80); 100 % of control (dose: 400.0 mg/kg/injection, schedule: Q04DX002 (ip), vehicle: saline with Tween-80).

For the compound `CCCCCCC(/C=C/c1ccc(Cl)c(Cl)c1)=N\NC(N)=S`, the T/C is 105 % of control under setting [5], 106 % of control under setting [6] and 107 % of control under setting [7].

Consider `O=C(OCC1CC=CCC1CCl)c1ccccc1` (stereo unspecified), for which the T/C is, setting by setting: under setting [4], 96 % of control; under setting [12], 99 % of control; under setting [13], 99 % of control.

On to `c1cc(-c2nn[nH]n2)ccc1NNc1ccc(-c2nn[nH]n2)cc1`, for which the T/C (dose: 50.0 mg/kg/injection, schedule: Q01DX001 (ip), vehicle: Klucel (hydroxypropylcellulose) (HPC)) is 101 % of control; the T/C (dose: 100.0 mg/kg/injection, schedule: Q01DX001 (ip), vehicle: Klucel (hydroxypropylcellulose) (HPC)) is 105 % of control; the T/C (dose: 200.0 mg/kg/injection, schedule: Q01DX001 (ip), vehicle: Klucel (hydroxypropylcellulose) (HPC)) is 98 % of control.
